Experiment [1] concerns the target human CB2 receptors (Homo sapiens (Human), UniProt P34972). The experiment is described as follows: human CB2 radioligand binding assay ([3H]CP 55,940 competition). How it is done: (§1) The CB1 and CB2 radioligand binding assays described herein are utilized to ascertain the affinity of compounds of the present application for binding to CB2 relative to CB1 receptors.
HEK293 cells stably expressing human CB2 receptors were grown until a confluent monolayer was formed. Briefly, the cells were harvested and homogenized in TE buffer (50 mM Tris-HCl, 1 mM MgCl2, and 1 mM EDTA) using a polytron for 2×10 second bursts in the presence of protease inhibitors, followed by centrifugation at 45,000×g for 20 minutes. The final membrane pellet was re-homogenized in storage buffer (50 mM Tris-HCl, 1 mM MgCl2, and 1 mM EDTA and 10% sucrose) and frozen at −78° C. until used. Saturation binding reactions were initiated by the addition of membrane preparation (protein concentration of 5 μg/well for human CB2) into wells of a deep well plate containing [^3H]CP 55,940 (120 Ci/mmol, a nonselective CB agonist commercially available from Tocris) in assay buffer (50 mM Tris, 2.5 mM EDTA, 5 mM MgCl2, and 0.5 mg/mL fatty acid free BSA, pH 7.4). After 90 min incubation at 30° C., binding reaction was terminated by the addition of 300 μL/well of cold assay buffer followed by rapid vacuum filtration through a UniFilter-96 GF/C filter plates (pre-soaked in 1 mg/mL BSA for 2 hours). The bound activity was counted in a TopCount using Microscint-20. Saturation experiments were conducted with twelve concentrations of [^3H]CP 55,940 ranging from 0.01 to 8 nM. Competition experiments were conducted with 0.5 nM [^3H]CP 55,940 and five concentrations (0.01 nM to 10 μM) of displacing ligands. The addition of 10 μM unlabeled CP 55,940 (Tocris, Ellisville, Mo.) was used to assess nonspecific binding.

Experiment [2] addresses rat CB2 receptors (Rattus norvegicus (Rat), UniProt Q9QZN9). The experiment is described as follows: rat CB2 radioligand binding assay ([3H]CP 55,940 competition). The note with it: HEK293 membranes, 0.5 nM [3H]CP 55,940. The procedure:
as §1
HEK293 cells stably expressing rat CB2 receptors were grown until a confluent monolayer was formed. Briefly, the cells were harvested and homogenized in TE buffer (50 mM Tris-HCl, 1 mM MgCl2, and 1 mM EDTA) using a polytron for 2×10 second bursts in the presence of protease inhibitors, followed by centrifugation at 45,000×g for 20 minutes. The final membrane pellet was re-homogenized in storage buffer (50 mM Tris-HCl, 1 mM MgCl2, and 1 mM EDTA and 10% sucrose) and frozen at −78° C. until used. Saturation binding reactions were initiated by the addition of membrane preparation (protein concentration of 20 μg/well for rat CB2) into wells of a deep well plate containing [^3H]CP 55,940 (120 Ci/mmol, a nonselective CB agonist commercially available from Tocris) in assay buffer (50 mM Tris, 2.5 mM EDTA, 5 mM MgCl2, and 0.5 mg/mL fatty acid free BSA, pH 7.4). After 45 min incubation at 30° C., binding reaction was terminated by the addition of 300 μl/well of cold assay buffer followed by rapid vacuum filtration through a UniFilter-96 GF/C filter plates (pre-soaked in 1 mg/mL BSA for 2 hours). The bound activity was counted in a TopCount using Microscint-20. Saturation experiments were conducted with twelve concentrations of [^3H]CP 55,940 ranging from 0.01 to 8 nM. Competition experiments were conducted with 0.5 nM [^3H]CP 55,940 and five concentrations of displacing ligands selected from the range of 0.01 nM to 10 μM. The addition of 10 μM unlabeled CP 55,940 (Tocris, Ellisville, Mo.) was used to assess nonspecific binding.

For experiment [3], the target named is rat CB1 receptors (HEK cells) (Rattus norvegicus (Rat), UniProt P20272). The experiment can be described thus: rat CB1 cyclase functional assay (HitHunter cAMP). The class given is cell-based. The procedure:
The cyclase functional assays were performed using the HitHunter™ cAMP assay kit from DiscoveRx (Fremont, Calif.) according to vendor's protocol. Briefly, HEK cells expressing CB2 or CB1 receptors (rat or human) were detached using cell dissociation buffer (Invitrogen, Carlsbad, Calif.), dispersed and placed in suspension at 10,000 cells per well in 96 well plates prior to the assay. Cell suspensions were incubated at 37° C. for 20 min with variable concentrations of test ligands and or 10 μM CP 55,940-positive control in the presence of a fixed concentration of forskolin (18 μM for rat CB2 and 37 μM for rat CB1) in Dulbescco's phosphate-buffered saline (Invitrogen, Carlsbad, Calif.) supplemented with bovine serum albumin (0.01% final concentration). The reactions were terminated by the addition of lysis buffer and the luminescence was detected following the procedure according to the manufacturer's instructions. EC50 values were calculated using sigmoidal dose-response curve fitting from Prism (GraphPad).

The mark [4] stands for this setting: HEK293 membranes, 0.5 nM [3H]CP 55,940, read-out: human CB2 (Ki).

pEC50, pKi: −log10 of the molar value. Like-named read-outs stand apart in the source and are kept apart here. Bounds are passed on as bounds.

Sequence of human CB2 receptors (P34972 whole entry): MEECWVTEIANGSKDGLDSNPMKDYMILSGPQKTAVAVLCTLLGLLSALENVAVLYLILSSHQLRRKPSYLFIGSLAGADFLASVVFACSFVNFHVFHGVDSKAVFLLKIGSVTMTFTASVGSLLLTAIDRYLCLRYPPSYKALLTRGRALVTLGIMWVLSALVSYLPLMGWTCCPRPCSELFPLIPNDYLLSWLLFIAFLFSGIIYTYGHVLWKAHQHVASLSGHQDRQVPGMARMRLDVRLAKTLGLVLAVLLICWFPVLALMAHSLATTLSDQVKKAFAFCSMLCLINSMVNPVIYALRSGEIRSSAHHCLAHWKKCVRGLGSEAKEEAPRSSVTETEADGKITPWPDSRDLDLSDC
Sequence of rat CB1 receptors (HEK cells) (P20272 whole entry): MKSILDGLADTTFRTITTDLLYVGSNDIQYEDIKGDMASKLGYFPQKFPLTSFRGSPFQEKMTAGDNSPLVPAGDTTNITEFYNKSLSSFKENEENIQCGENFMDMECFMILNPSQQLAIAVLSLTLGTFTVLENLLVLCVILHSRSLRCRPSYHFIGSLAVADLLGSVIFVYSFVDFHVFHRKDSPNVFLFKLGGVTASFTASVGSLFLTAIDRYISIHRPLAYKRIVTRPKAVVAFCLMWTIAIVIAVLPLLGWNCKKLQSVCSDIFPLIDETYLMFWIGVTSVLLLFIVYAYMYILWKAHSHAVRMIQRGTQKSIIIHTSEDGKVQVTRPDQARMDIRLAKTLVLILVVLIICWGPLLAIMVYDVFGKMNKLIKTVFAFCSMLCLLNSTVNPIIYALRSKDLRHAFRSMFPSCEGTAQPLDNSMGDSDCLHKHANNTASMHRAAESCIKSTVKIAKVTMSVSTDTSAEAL

Turning to `CN1CCC[C@H]1CNc1ccc(C(F)(F)F)cc1C(=O)/N=c1\sc(C(C)(C)C)cn1C[C@H]1CCCO1` [Example 55, N-[(2Z)-5-tert-butyl-3-[(2R)-tetrahydrofuran-2-ylmethyl]-1,3-thiazol-2(3H)-ylidene]-2-({[(2S)-1-methylpyrrolidin-2-yl]methyl}amino)-5-(trifluoromethyl)benzamide], the pKi in experiment [1] (setting [4]) was 7.44; in experiment [2], 8.09.
For `COCCn1cc(C(C)(C)C)s/c1=N\C(=O)c1cc(C(F)(F)F)ccc1ONC(C)(C)C` [Example 76, 2-[(tert-butylamino)oxy]-N-[(2Z)-5-tert-butyl-3-(2-methoxyethyl)-1,3-thiazol-2(3H)-ylidene]-5-(trifluoromethyl)benzamide], the values for the pKi in experiment [1] and in experiment [2] were 7.70 and 8.28, respectively.
For `CC(C)(C)c1cn(C[C@H]2CCCO2)/c(=N/C(=O)c2cc(C(F)(F)F)ccc2OCC(C)(C)n2cccc2)s1` [Example 74, N-[(2Z)-5-tert-butyl-3-[(2R)-tetrahydrofuran-2-ylmethyl]-1,3-thiazol-2(3H)-ylidene]-2-[2-methyl-2-(1H-pyrrol-1-yl)propoxy]-5-(trifluoromethyl)benzamide], the values for the pKi in experiment [1] (setting [4]) and in experiment [2] were 7.47 and 8.18, respectively.
Turning to `CC(C)(C)NOc1ccc(C(F)(F)F)cc1C(=O)/N=c1\sc(C(C)(C)C)cn1C[C@H]1CCCO1` [Example 65, 2-[(tert-butylamino)oxy]-N-[(2Z)-5-tert-butyl-3-[(2R)-tetrahydrofuran-2-ylmethyl]-1,3-thiazol-2(3H)-ylidene]-5-(trifluoromethyl)benzamide], the pKi was 8.74 in experiment [1] (setting [4]) and 9.10 in experiment [2]. The pEC50 in experiment [3] was less than 4.57.
On to `CC(=O)NOc1ccc(C(F)(F)F)cc1C(=O)/N=c1\sc(C(C)(C)C)cn1C[C@H]1CCCO1` [Example 75, 2-[(acetylamino)oxy]-N-[(2Z)-5-tert-butyl-3-[(2R)-tetrahydrofuran-2-ylmethyl]-1,3-thiazol-2(3H)-ylidene]-5-(trifluoromethyl)benzamide], for which the negative logarithm of the Ki (pKi) in experiment [1] (setting [4]) is 8.92; in experiment [2], 8.60.
With `CC(COc1ccc(C(F)(F)F)cc1C(=O)/N=c1\sc(C(C)(C)C)cn1C[C@H]1CCCO1)=NO` [Example 73, N-[(2Z)-5-tert-butyl-3-[(2R)-tetrahydrofuran-2-ylmethyl]-1,3-thiazol-2(3H)-ylidene]-2-{[2-(hydroxyimino)propyl]oxy}-5-(trifluoromethyl)benzamide], the pKi in experiment [1] (setting [4]) is 8.74; in experiment [2], 9.30. Also, the negative logarithm of the EC50 (pEC50) in experiment [3] (HEK cells, forskolin 37 μM, read-out: rCB1 cyclase (EC50)) is 5.63.
With `CC(C)(C)c1cn(C[C@H]2CCCO2)/c(=N/C(=O)c2cc(C(F)(F)F)ccc2ON=C2CCCC2)s1` [Example 83, N-[(2Z)-5-tert-butyl-3-(2R)-(tetrahydrofuran-2-ylmethyl)-1,3-thiazol-2(3H)-ylidene]-2-[(cyclopentylideneamino)oxy]-5-(trifluoromethyl)benzamide], the pKi in experiment [1] is 9.30; in experiment [2] it was 8.92.
With `C[C@@H](O)COc1ccc(C(F)(F)F)cc1C(=O)/N=c1\sc(C(C)(C)C)cn1C[C@H]1CCCO1` [Example 81, N-[(2Z)-5-tert-butyl-3-[(2R)-tetrahydrofuran-2-ylmethyl]-1,3-thiazol-2(3H)-ylidene]-2-{[(2R)-2-hydroxypropyl]oxy}-5-(trifluoromethyl)benzamide], the results for the pKi in experiment [1] (setting [4]) and in experiment [2] were 8.96 and 9.30, respectively.
The matching figures for `CC(=O)N1CCC[C@H]1COc1ccc(C(F)(F)F)cc1C(=O)/N=c1\sc(C(C)(C)C)cn1C[C@H]1CCCO1` [Example 47, 2-{[(2S)-1-acetylpyrrolidin-2-yl]methoxy}-N-[(2Z)-5-tert-but 1-3[(2R)-tetrahydrofuran-2-ylmethyl]-1,3-thiazol-2(3H)-ylidene]-5-(trifluoromethyl)benzamide]: 6.97 and 7.62.
For `CC(C)(C)OC(=O)NNc1ccc(C(F)(F)F)cc1C(=O)/N=c1\sc(C(C)(C)C)cn1C[C@H]1CCCO1` [Example 40, tert-butyl 2-[2-({[(2Z)-5-tert-butyl-3-[(2R)-tetrahydrofuran-2-ylmethyl]-1,3-thiazol-2(3H)-ylidene]amino}carbonyl)-4-(trifluoromethyl)phenyl]hydrazinecarboxylate], the results for the pKi in experiment [1] and in experiment [2] were 9.40 and 9.52, respectively.
Consider `CCN(CC)Oc1ccc(C(F)(F)F)cc1C(=O)/N=c1\sc(C(C)(C)C)cn1C[C@H]1CCCO1` [Example 78, N-[(2Z)-5-tert-butyl-3-[(2R)-tetrahydrofuran-2-ylmethyl]-1,3-thiazol-2(3H)-ylidene]-2-[(diethylamino)oxy]-5-(trifluoromethyl)benzamide], for which the pKi was 7.66 in experiment [1] (setting [4]) and 8.34 in experiment [2].
The matching figures for `CC(C)NOc1ccc(C(F)(F)F)cc1C(=O)/N=c1\sc(C(C)(C)C)cn1C[C@H]1CCCO1` [Example 79, N-[(2Z)-5-tert-butyl-3-[(2R)-tetrahydrofuran-2-ylmethyl]-1,3-thiazol-2(3H)-ylidene]-2-[(isopropylamino)oxy]-5-(trifluoromethyl)benzamide]: 9.52 and 9.30.
The corresponding values for `CC(CN1CCC[C@H]1COc1ccc(C(F)(F)F)cc1C(=O)/N=c1\sc(C(C)(C)C)cn1C[C@H]1CCCO1)=NO` [Example 77, N-[(2Z)-5-tert-butyl-3-[(2R)-tetrahydrofuran-2-ylmethyl]-1,3-thiazol-2(3H)-ylidene]-2-({(2S)-1-[2-(hydroxyimino)propyl]pyrrolidin-2-yl}methoxy)-5-(trifluoromethyl)benzamide] are 7.07 and 7.19.
The corresponding values for `CC(=O)C(C)=NOc1ccc(C(F)(F)F)cc1C(=O)/N=c1\sc(C(C)(C)C)cn1C[C@H]1CCCO1` [Example 84, N-[(2Z)-5-tert-butyl-3-[(2R)-tetrahydrofuran-2-ylmethyl]-1,3-thiazol-2(3H)-ylidene]-2-({[1-methyl-2-oxopropylidene]amino}oxy)-5-(trifluoromethyl)benzamide] are 8.48 and 8.62.
In the case of `CC(COc1ccc(C(F)(F)F)cc1C(=O)/N=c1\sc(C(C)(C)C)cn1C[C@H]1CCCO1)=NOC(C)(C)C` [Example 82], the pKi was 8.31 in experiment [1] (setting [4]) and 8.77 in experiment [2].
The corresponding values for `CN1CCC[C@H]1COc1ccc(C(F)(F)F)cc1C(=O)/N=c1\scc(C(C)(C)C)n1C[C@H]1CCCO1` [Example 57, N-[(2Z)-4-tert-butyl-3-[(2R)-tetrahydrofuran-2-ylmethyl]-1,3-thiazol-2(3H)-ylidene]-2-{[(2S)-1-methylpyrrolidin-2-yl]methoxy}-5-(trifluoromethyl)benzamide] are 6.54 and 7.82.
